Reference: patent US12708632B2 (Jazz Pharmaceuticals Research UK Limited, priority 2020, dated 2026)

System: seizures associated with Cortical Dysplasia and Cortical Brain Malformation
Test: Open label, expanded-access program of botanically derived purified CBD: caregiver-diary seizure frequency
Type: in vivo, human patients
Design: reduction in atonic seizures over the treatment period / reduction in tonic seizures over the treatment period / reduction in focal seizures without impairment over the treatment period: concentration or dose not given beside the values
Settings: for Seizure frequency: Tonic-clonic: baseline 13.0; for Seizure frequency: Myoclonic: baseline 4.0
Protocol: Subjects were required to be on one or more AEDs at stable doses for a minimum of two weeks prior to baseline and to have stable vagus nerve stimulation (VNS) settings and ketogenic diet ratios for a minimum of four weeks prior to baseline.
Dose was then increased weekly by 5 mg/kg/day to a goal of 20 to 25 mg/kg/day.
A maximum dose of 50 mg/kg/day could be utilised for patients who were tolerating the medication but had not achieved seizure control; these patients had further weekly titration by 5 mg/kg/day.
Modifications were made to concomitant AEDs as per clinical indication.
Seizure frequency, intensity, and duration were recorded by caregivers in a diary during a baseline period of at least 28 days. Changes in seizure frequency relative to baseline were calculated after at least 2 weeks and at defined timepoints of treatment.
Patients may be defined as responders if they had more than 50% reduction in seizure frequency compared to baseline. the percent change in seizure frequency was calculated as follows: […]
The percent change of seizure frequency may be calculated for any time interval where seizure number has been recorded. For the purpose of this example the percent change of seizure frequency for the end of the treatment period was calculated as follows: […]

## C=C(C)[C@@H]1CCC(C)=C[C@H]1c1c(O)cc(CCCCC)cc1O [CBD, cannabidiol]
Patient 1, 2 weeks, CBD 10.0 mg/kg/day, baseline 2.0
  Seizure frequency: Atonic: 0.0 seizures per week
Patient 1, 2 weeks, CBD 10.0 mg/kg/day
  Seizure frequency: Tonic-clonic: 12.0 seizures per week
Patient 1, 4 weeks, CBD 20.0 mg/kg/day, baseline 2.0
  Seizure frequency: Atonic: 1.0 seizures per week
Patient 1, 4 weeks, CBD 20.0 mg/kg/day
  Seizure frequency: Tonic-clonic: 25.0 seizures per week
Patient 1, 8 weeks, CBD 25.0 mg/kg/day, baseline 2.0
  Seizure frequency: Atonic: 3.0 seizures per week
Patient 1, 8 weeks, CBD 25.0 mg/kg/day
  Seizure frequency: Tonic-clonic: 17.0 seizures per week
Patient 1, 12 weeks, CBD 25.0 mg/kg/day, baseline 2.0
  Seizure frequency: Atonic: 1.0 seizures per week
Patient 1, 12 weeks, CBD 25.0 mg/kg/day
  Seizure frequency: Tonic-clonic: 16.0 seizures per week
Patient 1, treated for 12 weeks, vs baseline
  reduction in atonic seizures over the treatment period: 50%
Patient 2, 12 weeks, CBD 5.0 mg/kg/day, baseline 140.0
  Seizure frequency: Tonic: 70.0 seizures per week
Patient 2, treated for 12 weeks, vs baseline
  reduction in tonic seizures over the treatment period: 50%
Patient 3, 4 weeks, CBD 20.0 mg/kg/day
  Seizure frequency: Myoclonic: 0.0 seizures per week
Patient 3, 4 weeks, CBD 20.0 mg/kg/day, baseline 20.0
  Seizure frequency: Tonic: 4.0 seizures per week
Patient 3, 4 weeks, CBD 20.0 mg/kg/day, baseline 24.0
  Seizure frequency: Atonic: 0.0 seizures per week
Patient 3, 8 weeks, CBD 25.0 mg/kg/day
  Seizure frequency: Myoclonic: 0.0 seizures per week
Patient 3, 8 weeks, CBD 25.0 mg/kg/day, baseline 20.0
  Seizure frequency: Tonic: 200.0 seizures per week
Patient 3, 8 weeks, CBD 25.0 mg/kg/day, baseline 24.0
  Seizure frequency: Atonic: 0.0 seizures per week
Patient 3, 12 weeks, CBD 14.8 mg/kg/day
  Seizure frequency: Myoclonic: 56.0 seizures per week
Patient 3, 12 weeks, CBD 14.8 mg/kg/day, baseline 20.0
  Seizure frequency: Tonic: 140.0 seizures per week
Patient 3, 12 weeks, CBD 14.8 mg/kg/day, baseline 24.0
  Seizure frequency: Atonic: 12.0 seizures per week
Patient 3, 24 weeks, CBD 9.7 mg/kg/day
  Seizure frequency: Myoclonic: 28.0 seizures per week
Patient 3, 24 weeks, CBD 9.7 mg/kg/day, baseline 20.0
  Seizure frequency: Tonic: 140.0 seizures per week
Patient 3, 24 weeks, CBD 9.7 mg/kg/day, baseline 24.0
  Seizure frequency: Atonic: 12.0 seizures per week
Patient 3, 36 weeks, CBD 10.9 mg/kg/day
  Seizure frequency: Myoclonic: 0.0 seizures per week
Patient 3, 36 weeks, CBD 10.9 mg/kg/day, baseline 20.0
  Seizure frequency: Tonic: 60.0 seizures per week
Patient 3, 36 weeks, CBD 10.9 mg/kg/day, baseline 24.0
  Seizure frequency: Atonic: 16.0 seizures per week
Patient 3, 48 weeks, CBD 10.6 mg/kg/day
  Seizure frequency: Myoclonic: 20.0 seizures per week
Patient 3, 48 weeks, CBD 10.6 mg/kg/day, baseline 20.0
  Seizure frequency: Tonic: 40.0 seizures per week
Patient 3, 48 weeks, CBD 10.6 mg/kg/day, baseline 24.0
  Seizure frequency: Atonic: 8.0 seizures per week
Patient 3, 60 weeks, CBD 17.1 mg/kg/day
  Seizure frequency: Myoclonic: 1.0 seizures per week
Patient 3, 60 weeks, CBD 17.1 mg/kg/day, baseline 20.0
  Seizure frequency: Tonic: 28.0 seizures per week
Patient 3, 60 weeks, CBD 17.1 mg/kg/day, baseline 24.0
  Seizure frequency: Atonic: 1.0 seizures per week
Patient 3, 72 weeks, CBD 16.2 mg/kg/day
  Seizure frequency: Myoclonic: 1.0 seizures per week
Patient 3, 72 weeks, CBD 16.2 mg/kg/day, baseline 20.0
  Seizure frequency: Tonic: 40.0 seizures per week
Patient 3, 72 weeks, CBD 16.2 mg/kg/day, baseline 24.0
  Seizure frequency: Atonic: 1.0 seizures per week
Patient 3, 96 weeks, CBD 24.5 mg/kg/day
  Seizure frequency: Myoclonic: 16.0 seizures per week
Patient 3, 96 weeks, CBD 24.5 mg/kg/day, baseline 20.0
  Seizure frequency: Tonic: 28.0 seizures per week
Patient 3, 96 weeks, CBD 24.5 mg/kg/day, baseline 24.0
  Seizure frequency: Atonic: 2.0 seizures per week
Patient 3, 120 weeks, CBD 17.7 mg/kg/day
  Seizure frequency: Myoclonic: 16.0 seizures per week
Patient 3, 120 weeks, CBD 17.7 mg/kg/day, baseline 20.0
  Seizure frequency: Tonic: 6.0 seizures per week
Patient 3, 120 weeks, CBD 17.7 mg/kg/day, baseline 24.0
  Seizure frequency: Atonic: 4.0 seizures per week
Patient 3, 132 weeks, CBD 17.3 mg/kg/day
  Seizure frequency: Myoclonic: 16.0 seizures per week
Patient 3, 132 weeks, CBD 17.3 mg/kg/day, baseline 20.0
  Seizure frequency: Tonic: 6.0 seizures per week
Patient 3, 132 weeks, CBD 17.3 mg/kg/day, baseline 24.0
  Seizure frequency: Atonic: 4.0 seizures per week
Patient 3, 144 weeks, CBD 19.9 mg/kg/day
  Seizure frequency: Myoclonic: 40.0 seizures per week
Patient 3, 144 weeks, CBD 19.9 mg/kg/day, baseline 20.0
  Seizure frequency: Tonic: 56.0 seizures per week
Patient 3, 144 weeks, CBD 19.9 mg/kg/day, baseline 24.0
  Seizure frequency: Atonic: 2.0 seizures per week
Patient 3, treated for 144 weeks, vs baseline
  reduction in atonic seizures over the treatment period: 91.7%
Patient 4, 4 weeks, CBD 20.0 mg/kg/day, baseline 196.0
  Seizure frequency: Tonic: 60.0 seizures per week
Patient 4, 8 weeks, CBD 25.0 mg/kg/day, baseline 196.0
  Seizure frequency: Tonic: 40.0 seizures per week
Patient 4, 12 weeks, CBD 30.0 mg/kg/day, baseline 196.0
  Seizure frequency: Tonic: 80.0 seizures per week
Patient 4, 24 weeks, CBD 50.0 mg/kg/day, baseline 196.0
  Seizure frequency: Tonic: 24.0 seizures per week
Patient 4, 36 weeks, CBD 50.0 mg/kg/day, baseline 196.0
  Seizure frequency: Tonic: 32.0 seizures per week
Patient 4, 48 weeks, CBD 50.0 mg/kg/day, baseline 196.0
  Seizure frequency: Tonic: 54.0 seizures per week
Patient 4, 60 weeks, CBD 50.0 mg/kg/day, baseline 196.0
  Seizure frequency: Tonic: 24.0 seizures per week
Patient 4, 72 weeks, CBD 49.0 mg/kg/day, baseline 196.0
  Seizure frequency: Tonic: 24.0 seizures per week
Patient 4, 84 weeks, CBD 46.0 mg/kg/day, baseline 196.0
  Seizure frequency: Tonic: 36.0 seizures per week
